# According to patent US20250250251A1, “PIPERIDINYLPYRIDINYLCARBONITRILE DERIVATIVES AS INHIBITORS OF GLUTAMINYL-PEPTIDE CYCLOTRANSFERASE AND GLUTAMINYL-PEPTIDE CYCLOTRANSFERASE LIKE PROTEIN” (Boehringer Ingelheim International GmbH, priority 2024, published 2025):
# Where two headings read alike, the source gives them in different places.
# Legend:
# murine hepatocytes = test: Assay E: stability in murine hepatocytes; format: in vitro ADME, mouse; settings: 1 μM, 5% species serum
# Experimental: The metabolic degradation of the test compound is assayed in a murine hepatocyte suspension.
# Murine hepatocytes (typically cryopreserved) are incubated in an appropriate buffer system (e.g. Dulbecco's modified eagle medium plus 3.5 μg glucagon/500 mL, 2.5 mg insulin/500 mL and 3.75 mg/500 mL hydrocortison) containing 5% species serum.
# Following a (typically) 30 min preincubation in an incubator (37° C., 10% CO2) 5 μl of test compound solution (80 μM; from 2 mM in DMSO stock solution diluted 1:25 with medium) are added into 395 μl hepatocyte suspension (cell density in the range 0.25-5 Mio cells/mL, typically 1 Mio cells/mL; final concentration of test compound 1 μM, final DMSO concentration 0.05%).
# The cells are incubated for six hours (incubator, orbital shaker) and samples (25 μl) are taken at 0, 0.5, 1, 2, 4 and 6 hours. Samples are transferred into acetonitrile and pelleted by centrifugation (5 min). The supernatant is transferred to a new 96-deepwell plate, evaporated under nitrogen and resuspended.
# Decline of parent compound is analyzed by HPLC-MS/MS
# CLint is calculated as follows CL_[…]=Dose/AUC=(C0/CD)/(AUD+clast/k)×1000/60. C0: initial concentration in the incubation [μM], CD: cell density of vital cells [10e6 cells/mL], AUD: area under the data [μM×h], clast: concentration of last data point [μM], k: slope of the regression line for parent decline [h−1].
# The calculated in vitro hepatic intrinsic clearance can be scaled up to the intrinsic in vivo hepatic Clearance and used to predict hepatic in vivo blood clearance (CL) by the use of a liver model (well stirred model).
# [formula] [formula] [formula] • Hepatocellularity, mouse: 120×10e6 cells/g liver • Liver factor, mouse: 55 g/kg bodyweight • Blood flow, mouse: 90 ml/(min×kg)
# QPCT = molecular target: T1, QPCT (Homo sapiens, UniProt Q16769); test: Assay A: biochemical QPCT activity assay (MALDI-TOF MS, CD47 peptide substrate); settings: read-out: Inhibition of QPCT: IC50
# T1 construct: purchased Origine (OriGene) TP700028
# T1 sequence (Q16769 29-361): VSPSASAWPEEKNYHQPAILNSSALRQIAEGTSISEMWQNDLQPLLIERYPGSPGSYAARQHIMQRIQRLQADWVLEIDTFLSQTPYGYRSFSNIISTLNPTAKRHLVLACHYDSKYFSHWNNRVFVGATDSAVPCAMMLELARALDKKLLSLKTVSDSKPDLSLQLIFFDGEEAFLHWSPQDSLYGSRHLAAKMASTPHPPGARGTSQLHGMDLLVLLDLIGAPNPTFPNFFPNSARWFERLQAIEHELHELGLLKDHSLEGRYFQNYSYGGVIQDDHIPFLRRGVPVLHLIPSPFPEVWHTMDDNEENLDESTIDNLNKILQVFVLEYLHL
# Experimental: (§1) QPCT or QPCTL dependent conversion of N-terminal glutamine to pyroglutamate of CD47 was monitored via MALDI-TOF MS. Test compounds were dissolved in 100% DMSO and serially diluted into clear 1,536-well microtiter plates. Enzymatic reactions were set up in assay buffer containing 20 mM Tris pH 7.5, 0.1 mM TCEP, 0.01% BSA, and 0.001% Tween20. […] The plates were incubated for 10 min in a humidified incubator at 24° C. Subsequently, 2.5 μL of CD47 peptide substrate surrogate (^19[…]^33) was added to each well (final concentration: 10 μM for QPCTL/20 μM for QPCT). The plates were mixed for 30 sec at 1,000 rpm and subsequently incubated for 40 min in a humidified incubator at 24° C. […] The plates were sealed with an adhesive foil, mixed for 30 s at 1,000 rpm and stored at room temperature until preparation of the MALDI target plates. MALDI target plates were prepared as described previously. […] QPCT or QPCTL activity was monitored by calculating the ratio between product and internal standard signals followed by normalization to high (100% activity) and low (0% activity) controls. Determination of compound potencies was obtained by fitting the dose-response data to a four-parameter logistical equation.
# [1] = system: SIRPα signalling induced by A549 cells; test: Assay B: SIRPα signalling assay using A549 cells; format: cell-based; settings: Homo sapiens, read-out: Inhibition of SIRPα signalling induced by A549 cells: IC50
# Experimental: Two cell types are independently used: the Raji cell line (lymphoblast-like human cell line derived from B lymphocytes from a Burkitt's lymphoma patient in 1963) and A549 cells (adenocarcinoma human alveolar basal epithelial cells).
# Test compounds were dissolved in 100% DMSO and serially diluted into a white 384-well microtiter cell culture plate (PerkinElmer #60076780 in case of Raji assay; PDL-coated plates Greiner #781945 in case of A549 assay). 5000 Raji cells (ATCC #CC86) or 5000 A549 cells (ATCC #CCL-185) in Assay Complete Cell Plating reagent 30 (DiscoverX 93-0563R30B) were added per well. The assay plate was incubated for 48 h at 37° C., 95% humidity and 5% CO2. 15000 reporter cells (Jurkat PathHunter SIRPαV1, DiscoverX #93-1135C19) were added to each well, and the plate was incubated for 5 h at 37° C., 95% humidity and 5% CO2. Bioassay reagent 1 of the PathHunter Bioassay detection kit (DiscoverX 93-0001) was added to each well of the plate using a multichannel pipette followed by a 15 min incubation at room temperature. Afterwards bioassay reagent 2 was added followed by 60 min incubation at room temperature (incubation in the dark).
# The analysis of the data was performed using the luminescence signal generated by beta-galactosidase in the PathHunter reporter cell line. The luminescence measurement was done using a Pherastar Multi-Mode Reader. Dose-response curves & IC50 data were calculated with 4-parameter sigmoidal dose response formula.
# [2] = Assay C: permeability in CACO-2 cells; format: in vitro ADME; settings: human; for efflux ratio: read-out: Efflux Ratio
# Experimental: Caco-2 cells (1-2×10^5 cells/1 cm^2 area) are seeded on filter inserts (Costar transwell polycarbonate or PET filters, 0.4 μm pore size) and cultured (DMEM) for 10 to 25 days. Compounds are dissolved in appropriate solvent (like DMSO, 1-20 mM stock solutions). […] The transport solution (TL) is applied to the apical or basolateral donor side for measuring A-B or B-A permeability (3 filter replicates), respectively. Samples are collected at the start and end of experiment from the donor and at various time intervals for up to 2 hours also from the receiver side for concentration measurement by HPLC-MS/MS or scintillation counting. Sampled receiver volumes are replaced with fresh receiver solution.
# Efflux ratio (ER)=permeability B−A/permeability A−B
# CYP3A4 mRNA = test: Assay D: CYP induction screening assay in primary human hepatocytes; format: in vitro ADME; settings: 48 h
# Experimental: Cryopreserved plateable human hepatocytes (single donor. BioIVT) were thawed and plated in Collagen-I coated 96-well-plates at a cell density of 0.07 million cells per well.
# After a 6 h attachment period, the seeding medium was replaced by serum-free William's medium E supplemented with Matrigel (0.25 mg/ml) and allowed to recover overnight. 24 h post-seeding, serum-free Williams E medium containing the test compound at a final concentration of […] and a final DMSO content of 0.1% and 0.1% DMSO (solvent-treated control), respectively, was added to predefined wells. Exposure solutions were renewed after 24 h.
# After 48 h of treatment in total, the effect of the test compounds on CYP3A4 mRNA expression was assessed using the QuantiGene Plex Gene Expression Assay. Hepatocytes were lysed and total RNA was extracted using the QuantiGene Sample Processing Kit according to the instructions of the manufacturer.
# mRNA quantification was conducted using a customized QuantiGene Plex Panel to analyse CYP3A4 and the housekeeper genes RPL32, EIF4E2 and GUSB according to the instructions of the manufacturer and measured on a Luminex™ instrument. Signal was reported as median fluorescence intensity (MFI), which is proportional to the number of target RNA molecules present in the sample.
# For calculation of CYP3A4 mRNA induction, the signal for CYP3A4 was normalized against the geometric mean of the signal obtained for the housekeeper genes for hepatocytes exposed to test compounds in relation to solvent-treated samples according to the following equation: […]
# QPCTL = molecular target: T2, QPCTL (Homo sapiens, UniProt Q9NXS2); test: Assay A: biochemical QPCTL activity assay (MALDI-TOF MS, CD47 peptide substrate); settings: read-out: Inhibition of QPCTL: IC50
# T2 construct: made in house
# T2 sequence (Q9NXS2 whole entry, species assumed): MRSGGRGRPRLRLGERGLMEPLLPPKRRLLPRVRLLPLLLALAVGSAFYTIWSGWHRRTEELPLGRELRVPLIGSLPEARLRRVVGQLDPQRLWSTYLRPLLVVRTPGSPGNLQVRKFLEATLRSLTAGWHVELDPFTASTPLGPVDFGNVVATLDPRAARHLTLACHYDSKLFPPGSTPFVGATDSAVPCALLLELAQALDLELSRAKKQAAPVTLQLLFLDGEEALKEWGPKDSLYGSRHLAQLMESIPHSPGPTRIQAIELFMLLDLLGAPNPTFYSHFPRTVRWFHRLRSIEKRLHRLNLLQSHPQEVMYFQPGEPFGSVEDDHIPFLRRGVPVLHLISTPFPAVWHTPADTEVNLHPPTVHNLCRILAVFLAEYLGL
# Experimental: as §1
# [3] = system: SIRPα signalling induced by Raji cells; test: Assay B: SIRPα signalling assay using Raji cells; format: cell-based; settings: Homo sapiens, read-out: Inhibition of SIRPα signalling induced by Raji cells: IC50
# Experimental: Bioassay reagent 1 of the PathHunter Bioassay detection kit (DiscoverX 93-0001) was added to each well of the plate using a multichannel pipette followed by a 15 min incubation at room temperature. Afterwards bioassay reagent 2 was added followed by 60 min incubation at room temperature (incubation in the dark).
# The analysis of the data was performed using the luminescence signal generated by beta-galactosidase in the PathHunter reporter cell line. The luminescence measurement was done using a Pherastar Multi-Mode Reader.
# [4] = Table 12, compounds of the invention
# [5] = Table 2, compounds of the invention
# [6] = Table 4, compounds of the invention
# [7] = pH 7.2, Table 7, compounds of the invention, CACO-2 cells
# [8] = pH 7.2, Table 7, compounds of the invention, CACO-2 cells, permeability B-A/permeability A-B
# [9] = Table 9, compounds of the invention
"Mouse Hepatocyte Stability QH (murine hepatocytes; Table 13, prior art compounds)","IC50 (QPCT; Table 3, prior art compounds)","IC50 ([1]; Table 5, prior art compounds)","Papp A→B ([2]; Caco-2, pH 7.2)","efflux ratio ([2]; Caco-2, pH 7.2)","n-fold induction of CYP3A4 at 10 μM (CYP3A4 mRNA; Table 10, prior art compounds)","IC50 (QPCTL; Table 3, prior art compounds)","IC50 ([3]; Table 5, prior art compounds)",Mouse Hepatocyte Stability QH (murine hepatocytes; [4]),IC50 (QPCT; [5]),"IC50 [1, 6]","Papp A→B [2, 7]","efflux ratio [2, 8]",n-fold induction of CYP3A4 at 10 μM (CYP3A4 mRNA; [9]),IC50 (QPCTL; [5]),"IC50 [3, 6]",SMILES
–,–,–,–,–,–,–,–,49%,2 nM,15 nM,6.3 ×10⁻⁶ cm/s,7,1.2 n-fold,1 nM,107 nM,Cn1cnnc1C1(F)CCN(c2c(C#N)cc(C3CC3)nc2-c2ccnnc2)CC1 [Example 1]
–,–,–,–,–,–,–,–,49%,1 nM,14 nM,37 ×10⁻⁶ cm/s,1.6,4.6 n-fold,1 nM,20 nM,Cn1cnnc1C1(F)CCN(c2c(C#N)cc(C3CC3)nc2-c2cnc3nn(C(F)(F)F)cc3c2)CC1 [Example 2]
–,–,–,–,–,–,–,–,<12%,3 nM,7 nM,11 ×10⁻⁶ cm/s,6.4,4.2 n-fold,3 nM,10 nM,Cn1cnnc1C1(F)CCN(c2c(C#N)cc(C(C)(F)F)nc2-c2cnc3nn(C(F)(F)F)cc3c2)CC1 [Example 3]
–,–,–,–,–,–,–,–,16%,3 nM,6 nM,3.3 ×10⁻⁶ cm/s,13,2.1 n-fold,1 nM,31 nM,Cc1cc(C#N)c(N2CCC(F)(c3nncn3C)CC2)c(-c2cnc3nn(C(F)(F)F)cc3c2)n1 [Example 5]
–,–,–,–,–,–,–,–,<12%,6 nM,82 nM,0.6 ×10⁻⁶ cm/s,36.1,0.6 n-fold,2 nM,226 nM,Cn1cnnc1C1(F)CCN(c2c(C#N)cc(C3CC3(F)F)nc2-c2ccnnc2)CC1 (stereo not drawn) [Example 6]
–,–,–,–,–,–,–,–,–,1 nM,17 nM,34 ×10⁻⁶ cm/s,1.8,6.0 n-fold,3 nM,11 nM,Cn1cnnc1C1(F)CCN(c2c(C#N)cc(C(F)(F)F)nc2-c2cnc3nn(C(C)(C)C)c(C(F)F)c3c2)CC1 [Example 16]

# The remaining lines, values behind:
SMILES,"Mouse Hepatocyte Stability QH (murine hepatocytes; Table 13, prior art compounds)","IC50 (QPCT; Table 3, prior art compounds)","IC50 ([1]; Table 5, prior art compounds)","Papp A→B ([2]; Caco-2, pH 7.2)","efflux ratio ([2]; Caco-2, pH 7.2)","n-fold induction of CYP3A4 at 10 μM (CYP3A4 mRNA; Table 10, prior art compounds)","IC50 (QPCTL; Table 3, prior art compounds)","IC50 ([3]; Table 5, prior art compounds)",Mouse Hepatocyte Stability QH (murine hepatocytes; [4]),IC50 (QPCT; [5]),"IC50 [1, 6]","Papp A→B [2, 7]","efflux ratio [2, 8]",n-fold induction of CYP3A4 at 10 μM (CYP3A4 mRNA; [9]),IC50 (QPCTL; [5]),"IC50 [3, 6]"
"Cn1cnnc1C1CCN(c2c(C#N)cccc2-c2cncc3c2cnn3C)CC1 [Compound 4, reference compound]",92%,313 nM,4500 nM,0.3 ×10⁻⁶ cm/s,28.1,0.8 n-fold,97 nM,> 10000 nM,–,–,–,–,–,–,–,–
"Cn1cnnc1C1CCN(c2c(C#N)cccc2-c2ccc3ocnc3c2)CC1 [Compound 15, reference compound]",65%,1080 nM,3150 nM,11 ×10⁻⁶ cm/s,5.4,8.7 n-fold,554 nM,5990 nM,–,–,–,–,–,–,–,–
"Cn1cnnc1C1CCN(c2c(C#N)cccc2-c2ccc3nonc3c2)CC1 [Compound 19, reference compound]",62%,106 nM,296 nM,19 ×10⁻⁶ cm/s,3.4,15.8 n-fold,117 nM,2810 nM,–,–,–,–,–,–,–,–
"Cn1cnnc1C1CCN(c2c(C#N)cccc2-c2cnc3cn[nH]c3c2)CC1 [Compound 125, reference compound]",45%,446 nM,> 10000 nM,0.6 ×10⁻⁶ cm/s,30.4,2.1 n-fold,159 nM,4490 nM,–,–,–,–,–,–,–,–
Cn1cnnc1C1(F)CCN(c2c(C#N)cc(C(F)(F)F)nc2-c2cc3cn(C(C)(C)C)nc3nc2C(F)F)CC1 [Example 14],–,–,–,–,–,–,–,–,<12%,11 nM,44 nM,14 ×10⁻⁶ cm/s,5.3,–,28 nM,117 nM
"Cn1cncc1C1CCN(c2c(C#N)cccc2-c2ccc(F)nc2)CC1 [QP5038, reference compound]",97%,–,6 nM,–,–,58.5 n-fold,–,21 nM,–,–,–,–,–,–,–,–
